Values of other authors, collected in patent US20220040156A1, “COMPOSITIONS, DEVICES AND METHODS FOR TREATING OBSESSIVE-COMPULSIVE DISORDER” (CENTRE FOR DIGESTIVE DISEASES, priority 2017, published 2022).

Test system: children with autism / autistic symptoms
Settings: reports of Sandler et al. 2000, Rodakis 2015 and unreferenced observations

Structure (SMILES)	effect on behavioural changes / autistic symptoms
CN[C@H](CC(C)C)C(=O)N[C@H]1C(=O)N[C@@H](CC(N)=O)C(=O)N[C@H]2C(=O)N[C@H]3C(=O)N[C@H](C(=O)N[C@H](C(=O)O)c4cc(O)cc(O)c4-c4cc3ccc4O)[C@H](O)c3ccc(c(Cl)c3)Oc3cc2cc(c3O[C@@H]2O[C@H](CO)[C@@H](O)[C@H](O)[C@H]2O[C@H]2C[C@](C)(N)[C@H](O)[C@H](C)O2)Oc2ccc(cc2Cl)[C@H]1O [vancomycin]	reversal of behavioural changes and progress to normality within a few weeks
CC1(C)S[C@@H]2[C@H](NC(=O)[C@H](N)c3ccc(O)cc3)C(=O)N2[C@H]1C(=O)O [amoxycillin]	reversed almost completely
